Source: ChEMBL document CHEMBL1649069, “Discovery of a series of phosphonic acid-containing thiazoles and orally bioavailable diamide prodrugs that lower glucose in diabetic animals through inhibition of fructose-1,6-bisphosphatase” (J Med Chem, 2011)
Calls of active or inactive are those of the source. No cut-off for these calls is given here.

Key:
[1] = system: Rattus norvegicus; assay: Antidiabetic activity in Sprague-Dawley rat assessed as decrease in glucose Cmax at 10 mg/kg, iv; type: functional
[2] = system: Rattus norvegicus; assay: Antidiabetic activity in Sprague-Dawley rat assessed as decrease in glucose Cmax at 10 mg/kg, po; type: functional
[3] = biological target: T1, Fructose-1,6-bisphosphatase 1 (Homo sapiens, UniProt P09467)
T1 sequence (P09467 whole entry): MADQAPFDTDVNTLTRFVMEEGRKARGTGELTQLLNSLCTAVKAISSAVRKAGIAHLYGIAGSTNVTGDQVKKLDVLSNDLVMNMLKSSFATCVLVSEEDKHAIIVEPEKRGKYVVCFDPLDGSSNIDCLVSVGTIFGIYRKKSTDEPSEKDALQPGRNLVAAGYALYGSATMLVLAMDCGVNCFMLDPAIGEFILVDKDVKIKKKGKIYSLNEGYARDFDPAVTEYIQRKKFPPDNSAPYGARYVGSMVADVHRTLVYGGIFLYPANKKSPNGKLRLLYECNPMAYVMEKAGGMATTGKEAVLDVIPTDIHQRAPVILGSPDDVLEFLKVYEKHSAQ
Description: Inhibition of human liver FBP

[4] = Oral bioavailability in rat; type: ADME, organism-based; conditions: in vivo
[5] = (§1) Oral bioavailability in Sprague-Dawley rat; type: ADME, organism-based; conditions: Sprague-Dawley, in vivo
[6] = Oral bioavailability in dog; type: ADME, organism-based, Canis lupus familiaris; conditions: in vivo
[7] = system: Rattus norvegicus; assay: Antidiabetic activity in Sprague-Dawley rat assessed as decrease in glucose Cmax at 30 mg/kg
[8] = Half life in Sprague-Dawley rat; type: ADME, organism-based; conditions: in vivo
[9] = Clearance in Sprague-Dawley rat; type: ADME, organism-based; conditions: in vivo
[10] = Plasma protein binding in human; type: ADME, cell-free; conditions: read-out: PPB (converted)
[11] = Plasma protein binding in Sprague-Dawley rat; type: ADME, cell-free; conditions: read-out: PPB (converted)
[12] = Volume of distribution in Sprague-Dawley rat; type: ADME, organism-based; conditions: in vivo
[13] = system: Rattus norvegicus; assay: Antihyperglycemic activity in Zucker fa/fa rat assessed as reduction in glucose level at 0.4 % w/w administered as food mixture; type: functional, organism-based
[14] = system: Rattus norvegicus; assay: as §1; type: ADME, organism-based; conditions: in vivo

IC50 [3] | SMILES | inhibition in vivo at 10 mg/kg [1] | other results
– | Cc1nc(-c2ccc(P(=O)(O)O)o2)c(CC(C)C)s1 | 55% | –
– | CCOC(=O)C(C)(C)NP(=O)(NC(C)(C)C(=O)OCC)c1ccc(-c2nc(N)sc2CC(C)C)o1 | – | inhibition in vivo at 10 mg/kg [2]: 45%
– | CCOC(=O)OC(C)OP(=O)(OC(C)OC(=O)OCC)c1ccc(-c2nc(N)sc2CC(C)C)o1 (stereo not drawn) | – | inhibition in vivo at 10 mg/kg [2]: 12%
16 nM | Nc1nc(-c2ccc(P(=O)(O)O)o2)c(N2CCOCC2)s1 | 75% | –
– | CC(C)Cc1sc(Br)nc1-c1ccc(P(=O)(O)O)o1 | 3% | –
– | Nc1nc(-c2ccc(P(=O)(O)O)o2)c(-c2ccc(-c3ccccc3)cc2)s1 | 36% | –
– | CCOC(=O)[C@H](C)NP(=O)(N[C@@H](C)C(=O)OCC)c1ccc(-c2nc3c(N)c(F)cc(CC)c3n2CC(C)C)o1 | – | bioavailability [4]: > 10%; bioavailability [5]: 5%; bioavailability [6]: > 10%
– | CCOC(=O)[C@H](C)NP(=O)(Oc1ccccc1)c1ccc(-c2nc(N)sc2CC(C)C)o1 (stereo partly drawn) | – | inhibition in vivo at 30 mg/kg [7]: 46%
12 nM | Nc1nc(-c2ccc(P(=O)(O)O)o2)c(-c2ccc3ccccc3c2)s1 | 20% | –
1200 nM | C=Cc1nc(-c2ccc(P(=O)(O)O)o2)c(CC(C)C)s1 | – | –
– | COc1ccccc1-c1sc(N)nc1-c1ccc(P(=O)(O)O)o1 | 66% | –
– | Nc1nc(-c2ccc(P(=O)(O)O)o2)c(-c2ccc(F)cc2)s1 | 60% | –
50 nM | CCCc1sc(N)nc1C(=O)OCP(=O)(O)O | 63% | –
– | CCOC(=O)c1sc(N)nc1-c1ccc(P(=O)(O)O)o1 | 76% | –
890 nM | CSc1nc(-c2ccc(P(=O)(O)O)o2)c(CC(C)C)s1 | – | –
41 nM | CS(=O)(=O)c1ccc(-c2sc(N)nc2-c2ccc(P(=O)(O)O)o2)cc1 | 78% | –
150 nM | Nc1nc(-c2ccc(P(=O)(O)O)o2)c(Cc2ccccc2)s1 | – | –
14 nM | COC(=O)c1ccc(-c2sc(N)nc2-c2ccc(P(=O)(O)O)o2)cc1 | 78% | –
– | Nc1nc(-c2ccc(F)c(P(=O)(O)O)c2)c(-c2ccccc2)s1 | 0% | –
13 nM | Nc1nc(-c2ccc(P(=O)(O)O)o2)c(-c2ccc(Cl)cc2)s1 | 40% | –

IC50 [3] | SMILES | inhibition in vivo at 10 mg/kg [1] | other results
– | CCOC(=O)CNP(=O)(Oc1ccccc1)c1ccc(-c2nc(N)sc2CC(C)C)o1 (stereo not drawn) | – | inhibition in vivo at 10 mg/kg [2]: 51%
19 nM | Nc1nc(-c2ccc(P(=O)(O)O)o2)c(C2CCC2)s1 | – | –
21 nM | COc1cccc(-c2sc(N)nc2-c2ccc(P(=O)(O)O)o2)c1 | 0% | –
1300 nM | Nc1nc(-c2cccc(P(=O)(O)O)c2)cs1 | – | –
180 nM | CC(C)Cc1sc(Cl)nc1-c1ccc(P(=O)(O)O)o1 | – | –
120 nM | Cc1sc(N)nc1-c1ccc(P(=O)(O)O)o1 | – | –
– | CCc1cc(F)c(N)c2nc(-c3ccc(P(=O)(O)O)o3)n(CC(C)C)c12 | – | half-life [8]: 45 min; clearance [9]: 4.33 mL/min/kg; fraction unbound [10]: 0.001; fraction unbound [11]: 0.01; bioavailability [5]: 2%; Vd [12]: 0.25 L/kg
– | Nc1nc(-c2ccc(P(=O)(O)O)o2)c(C(=O)OCc2ccccc2)s1 | 42% | –
> 10000 nM | Nc1nc(-n2ccc(P(=O)(O)O)c2)c(-c2ccccc2)s1 | – | –
32 nM | CC(=O)c1ccc(-c2sc(N)nc2-c2ccc(P(=O)(O)O)o2)cc1 | 43% | –
2750 nM | CC(C)Cc1sc(C(N)=O)nc1-c1ccc(P(=O)(O)O)o1 | – | –
800 nM | CC(C)Cn1c(-c2ccc(P(=O)(O)O)o2)nc2c(N)ncnc21 | – | –
> 10000 nM | CCCc1sc(N)nc1-c1ccc(P(=O)(O)O)s1 | – | –
2000 nM | CC(C)Cc1sc(C#N)nc1-c1ccc(P(=O)(O)O)o1 | – | –
950 nM | Nc1nc(C(=O)NCP(=O)(O)O)c(-c2cccs2)s1 | – | –
20 nM | Nc1nc(-c2ccc(P(=O)(O)O)o2)c(CC2CC2)s1 | – | –
22 nM | COc1ccc(-c2sc(N)nc2-c2ccc(P(=O)(O)O)o2)cc1 | 63% | –
– | CCOC(=O)[C@H](C)NP(=O)(N[C@@H](C)C(=O)OCC)c1ccc(-c2nc(N)sc2CC(C)C)o1 | – | inhibition [13]: Active; inhibition in vivo at 10 mg/kg [2]: 59%
21 nM | CSc1ccc(-c2sc(N)nc2-c2ccc(P(=O)(O)O)o2)cc1 | 72% | –
– | Nc1nc(-c2ccc(P(=O)(O)O)o2)c(Br)s1 | 20% | –

IC50 [3] | SMILES | inhibition in vivo at 10 mg/kg [1] | other results
220 nM | CC(C)Cc1sc(CO)nc1-c1ccc(P(=O)(O)O)o1 | 8% | –
24 nM | CC(C)(C)Sc1sc(N)nc1-c1ccc(P(=O)(O)O)o1 | – | –
300 nM | Nc1nc(-c2ccc(P(=O)(O)O)o2)c(Sc2ccccc2)s1 | – | –
– | Nc1nc(-c2ccc(P(=O)(O)O)o2)c(-c2ccco2)s1 | 21% | –
– | CCCSc1sc(N)nc1-c1ccc(P(=O)(O)O)o1 | 82% | –
– | Nc1nc(-c2ccc(P(=O)(O)O)o2)c(Cl)s1 | 17% | –
– | CC(C)Cc1sc(N)nc1-c1ccc(P(=O)(O)O)o1 [MB-05032] | 65% | half-life [8]: 39 min; clearance [9]: 4 mL/min/kg; fraction unbound [10]: 0.07; fraction unbound [11]: 0.1; F [14]: 4%; Vd [12]: 0.18 L/kg
14 nM | Nc1nc(-c2ccc(P(=O)(O)O)o2)c(-c2ccccc2)s1 | 76% | –
– | CC(C)(C)c1ccc(-c2sc(N)nc2-c2ccc(P(=O)(O)O)o2)cc1 | 6% | –
24 nM | CC(C)Sc1sc(N)nc1-c1ccc(P(=O)(O)O)o1 | 48% | –
– | Nc1nc(-c2ccc(P(=O)(O)O)o2)c(-c2cccs2)s1 | 24% | –
250 nM | CCCc1sc(N)nc1-c1cccc(P(=O)(O)O)c1 | 0% | –
– | CCOC(=O)OCOP(=O)(OCOC(=O)OCC)c1ccc(-c2nc(N)sc2CC(C)C)o1 | – | inhibition in vivo at 30 mg/kg [7]: 40%
10000 nM | Cc1oc(-c2nc(N)sc2-c2ccccc2)nc1P(=O)(O)O | – | –
– | CC(C)Cc1sc(N)nc1-c1ccc(P2(=O)OCC[C@H](c3cccc(Cl)c3)O2)o1 (stereo partly drawn) | – | inhibition in vivo at 30 mg/kg [7]: 53%
400 nM | CCc1nc(-c2ccc(P(=O)(O)O)o2)c(CC(C)C)s1 | – | –
33 nM | CCSc1sc(N)nc1-c1ccc(P(=O)(O)O)o1 | – | –
5000 nM | CC(C)Cc1sc(-c2cccnc2)nc1-c1ccc(P(=O)(O)O)o1 | – | –
100 nM | Nc1nc(-c2ccc(P(=O)(O)O)o2)c(I)s1 | -2% | –
